Literature values as cited in patent publication US20140010802A1, “SYSTEMS AND METHODS FOR DIAGNOSING A PREDISPOSITION TO DEVELOP CANCER” (University of Hawaii, Office of Technology Transfer and …, priority 2011, published 2014).

Tested on: MM patients
Details: phase 1 clinical trial, 3 MM patients

Cc1c(CN2CCN(C(=O)[C@H](C)O)CC2)sc2c(N3CCOCC3)nc(-c3cnc(N)nc3)nc12 [GDC0980]
anti-tumor effects in patients: anti-tumor effects
